In this assay the test system is HIV. In words: HIV infection in cell culture (syncytia formation; PBLs or H9 cells). Format: cell-based. Particulars: read-out: IC50 (concentration at which 50% of the virus-induced syncytia were suppressed). As for the experimental part: The HIV test was carried out with slight modifications according to the method of Pauwels et al. [cf. Journal of Virological Methods 20, (1988), 309-321].
Normal human blood lymphocytes (PBLs) were concentrated by means of Ficoll-Hypaque and stimulated with phytohaemagglutinin (90 μg/ml) and interleukin-2 (40 U/ml) in RPMI 1640 and 20% foetal calf serum. For infection with the infectious HIV, PBLs were pelleted and the cell pellet was then suspended in 1 ml of HIV virus adsorption solution and incubated for 1 hour at 37° C.
Alternatively, HIV-susceptible H9 cells were employed instead of normal human blood lymphocytes for testing the antiviral effects of the compounds according to the invention.
The virus adsorption solution was centrifuged and the infected cell pellet was taken up in growth medium so that a concentration of 1×10^5 cells per ml was established. The cells infected in this way were pipetted into the wells of 96-well microtiter plates to give 1×10^4 cells/well.
The first vertical row of the microtiter plate contained only growth medium and cells which had not been infected, but otherwise treated exactly as described above (cell control). The second vertical row of the microtiter plate contained only HIV-infected cells (virus control) in growth medium. The other wells contained the compounds according to the invention in differing concentrations, starting from the wells of the 3rd vertical row of the microtiter plate, from which the test substances were diluted 2^10 times in 2-fold steps.
The test batches were incubated at 37° C. until, in the untreated virus control, the syncytia formation typical of HIV occurred (between day 3 and 6 after infection), which was then microscopically assessed. Under these test conditions, in the untreated virus control about 20-50 syncytia resulted, while the untreated cell control contained no syncytia.
The IC50 values were determined as the concentration of the treated and infected cells at which 50% (about 10-20 syncytia) of the virus-induced syncytia were suppressed by treatment with the compound according to the invention.

Setting [1] is: Human immunodeficiency virus 1, 72 h, HIV-infected PBLs or alternatively H9 cells, 37° C., read between day 3 and 6 after infection.

Read-outs that look alike come from different tables or passages of the source.

For `CON=c1c2cc(Cl)ccc2[nH]c(=S)c2ccccc12` [Example 4], the IC50 under setting [1] was 380 nM.
For the compound `Cc1ccnc2c1NC(=O)c1cccnc1N2C1CC1` [BIRG 587, reference compound], under “Human immunodeficiency virus 1, H9, 72 h”, the IC50 was found to be 90 nM.
Turning to `CN(C)CCON=c1c2cc(Cl)ccc2[nH]c(=S)c2ccccc12` [Example 2], the IC50 under setting [1] came out at 1500 nM.
Regarding `S=c1[nH]c2ccc(Cl)cc2c(=NOCCN2CCOCC2)c2ccccc12` [Example 3], the IC50 under setting [1] is 380 nM.

The values are drawn from patent publication US5545736A, “6-thiono-5,6-dihydro-dibenz[B,E] azepin-11-one-11-oximes” (Bayer Aktiengesellschaft, priority 1991, dated 1996).
